# * marks the point of attachment. Octanoyl = CCCCCCCC(=O)*
# Tests used:
# K.p. ATCC 700603 = test: MIC assay, sensitizing effect of peptide on rifampicin; assay type: cell-based, Klebsiella pneumoniae; details: FIG. 9C, peptide 4 ug/ml
# Method: (§1) All MIC assay experiments were performed using the Clinical and Laboratory Standards Institute (CLSI) guidelines (Clinical & Laboratory Standards Institute: CLSI Guidelines, 2017). Bacterial cells cultured overnight were diluted to 0.05 McFarland standard using McFarland (KIT […] PLUS INSTRUMENT, Biomerieux) in Muller Hinton II Broth (cation-adjusted) (Difco). The cells were inoculated at 1.5×10^5 CFU per 200 μL solution of each well in a 96-well plate. The peptide and the antibiotic were prepared using 2-fold serially diluted concentrations. […] Incubation was performed at 37° C. for 18 hours, and then absorbance was measured at 600 nm using an EPOCH2 microplate reader (BioTek, Winooski, USA) to calculate a MIC value. The MIC value was defined as a concentration of the antibiotic or peptide at which bacterial growth was inhibited to a level of lower than 10% growth of the positive control. Fold reduction was calculated using the following expression.
# (§2) ATCC 25922, A.b. ATCC 17978, K.p. ATCC 700603, and P.a. ATCC 27853, or CRE (E.c. NDM-1, K.p. NDM-1, or K.p. KPC) (FIGS. 9 and 10).
# Ec NDM-1 = test: MIC assay, sensitizing effect of peptide on rifampicin (CRE); assay type: cell-based, E. coli; details: FIG. 9E; Ec NDM-1 (CRE); peptide 4 ug/ml
# Method: as §1, §2
# [1] = test system: E.c. ATCC 25922, A.b. ATCC 17978, K.p. ATCC 700603, P.a. ATCC 27853, or CRE (E.c. NDM-1, K.p. NDM-1, or K.p. KPC); test: MIC assay, comparison with L9P on rifampicin or colistin; assay type: cell-based; details: FIGS. 9 and 10
# Method: as §1, §2
# P.a. ATCC 27853 = test: MIC assay, sensitizing effect of peptide on rifampicin or colistin; assay type: cell-based, Pseudomonas aeruginosa; details: peptide 4 ug/ml
# Method: as §1, §2
# K.p. KPC = test: MIC assay, sensitizing effect of peptide on rifampicin or colistin (CRE); assay type: cell-based, Klebsiella pneumoniae; details: peptide 4 ug/ml
# Method: as §1, §2
# A. baumannii ATCC 17978 = test: Neutropenic mouse thigh infection model; assay type: in vivo
# Method: To induce neutropenia in 6-week-old female ICR (CD-1) mice weighing 23 g to 27 g (Orient Bio, Seongnam, Korea), the mice were treated (subcutaneously injected) with 150 mg/kg and 100 mg/kg of cyclophosphamide (CP), respectively, 5 days and 2 days before thigh infection. A. baumannii ATCC 17978 was harvested, washed, and suspended in sterile saline. The mice were anesthetized and infected with 1×10^5 CFU A. baumannii ATCC 17978 in the right and left thighs. […] The sensitizing peptide CMP1401 was administered by intraperitoneal injection 1, 3, 5, and 7 hours after infection. The mice were euthanized 9 hours after bacterial injection. Both thighs were harvested and suspended in sterile saline. The thighs were homogenized and serially diluted in sterile saline. The homogenized thighs were applied to tryptic soy agar plates, incubated overnight at 37° C., and the number of colonies was counted.
# A. baumannii 801 = test: Immunosuppressed rat pneumonia infection model; assay type: in vivo; details: 5 mg/kg of rifampicin and 3 mg/kg or 6 mg/kg of CMP1401 (intravenous infusion 1 hour) vs 32 mg/kg colistin
# Method: The results are illustrated in FIG. 16.
# 32 mg/kg of colistin is known as a clinical dose used for treatment of A. baumannii 801. Therefore, an effect observed in a case where 32 mg/kg of colistin was used alone may be a criterion for comparing effectiveness of co-administration of CMP1401 and an antibacterial agent in this example.
# E. coli ATCC 25922 = test: MIC assay, sensitizing effect of peptide on antibacterial agents; assay type: cell-based
# Method: as §1
# Fold reduction=MIC of antibiotic alone/MIC of antibiotic in presence of sensitizing peptide
# Using the same MIC assay method as in Example 1, sensitizing effects of the peptide L9P (CMP1107, 1 ug/ml), which is known as a conventional sensitive AMP, and CMP1401 (1 ug/ml) were compared on existing antibacterial agents against E. coli ATCC 25922 (FIG. 5A).
# In addition, MIC screening was used to compare sensitizing effects of the competitive drug SPR741 and the peptide CMP1401 or CMP1501 on the existing antibacterial agents against E. coli ATCC 25922 (FIGS. 5B and 5C). SPR741, which is a previously known polymyxin B (PMB) analog, is a sensitive AMP, and is a drug that has been identified through preclinical experiments to be effective against Gram-negative bacteria in a case of being used together with existing Gram-positive antibiotics.
# as §2
# [2] = test system: inner membrane of E. coli ATCC 25922; test: Enzyme assay, inner membrane leakage (β-galactosidase release, ONPG); assay type: cell-based; details: 1.5 mM ONPG
# Method: It was observed, through an enzyme assay, whether the sensitizing peptide destroyed the outer and inner membranes of Gram-negative bacteria. In the presence of the sensitizing peptide, it was observed whether in a case where 1.5 mM ONPG was used together therewith, β-galactosidase was released from E. coli ATCC 25922 for the inner membrane, and whether in a case where 200 μM CENTA was used together therewith, β-lactamase was released from E. coli NDM-1 for the outer membrane.
# To determine leakage of the inner membrane, release of the cytoplasmic enzyme β-galactosidase was evaluated. The bacteria were diluted to OD600=1 and 1.5 mM ONPG (O-nitrophenyl-β-D-galactopyranoside) was added. Absorbance of a product of enzyme reaction was measured at 420 nm. The other procedures were carried out in the same manner as in the experiment for outer membrane destruction.
substance,measurement,setting,value
OctA-KKALKLAKKPLKLLK-NH2 (Octanoyl-KKALKLAKKPLKLLK-NH2) [CMP1401],Decreased MIC value of rifampicin at peptide concentration of 4 ug/ml,K.p. ATCC 700603,7.8 ng/mL
same,Decreased MIC value of rifampicin at peptide concentration of 4 ug/ml,Ec NDM-1,4 ng/mL
same,sensitizing effect on rifampicin or colistin compared with L9P,[1],very good sensitizing effect
same,Decreased MIC value of rifampicin at peptide concentration of 4 ug/ml,P.a. ATCC 27853; FIG. 9D,0.25 µg/mL
same,Decreased MIC value of colisitin at peptide concentration of 4 ug/ml,P.a. ATCC 27853; FIG. 10B,0.016 µg/mL
same,Decreased MIC value of rifampicin at peptide concentration of 4 ug/ml,K.p. KPC; FIG. 9G,7.8 ng/mL
same,Decreased MIC value of colisitin at peptide concentration of 4 ug/ml,K.p. KPC; FIG. 10C,0.25 µg/mL
same,decrease in number of colonies compared with rifampicin alone,A. baumannii ATCC 17978; CMP1401 100 mg/kg in the presence of 20 mg/kg of rifampicin,14 fold
same,"number of colonies, peptide administered alone",A. baumannii ATCC 17978; CMP1401 alone at 50 mg/kg,No changes were observed in the number of colonies
same,therapeutic efficacy of combination therapy with rifampicin,A. baumannii ATCC 17978; rifampicin and CMP1401,excellent therapeutic efficacy
same,effect of co-administration with rifampicin compared with colistin,A. baumannii 801,comparable to that observed in a case where 32 mg/kg of colistin was administered
same,Decreased MIC value of rifampicin at peptide concentration of 4 ug/ml,"E. coli ATCC 25922; FIG. 9A, E.c. ATCC 25922, peptide 4 ug/ml",2 ng/mL
same,Decreased MIC value of colisitin at peptide concentration of 4 ug/ml,"E. coli ATCC 25922; FIG. 10A, E.c. ATCC 25922, peptide 4 ug/ml",7.8 ng/mL
same,sensitizing effect on existing antibacterial agents compared with SPR741,E. coli ATCC 25922; FIGS. 5B and 5C,almost the same or much better sensitizing effect
same,sensitizing effect compared with SPR741 at half its concentration,"E. coli ATCC 25922; peptide concentration decreased by half as compared with SPR741, FIG. 5C",equal or superior effect
same,sensitizing effect on existing antibacterial agents compared with L9P,"E. coli ATCC 25922; peptides 1 ug/ml, FIG. 5A",very good sensitizing effect
same,destruction of inner membrane (β-galactosidase release),[2],did not destroy these membranes

# — US20230181678A1, “NOVEL ANTIBACTERIAL PEPTIDE OR PEPTIDE ANALOG AND USE THEREOF” (CAMP THERAPEUTICS INC., priority 2020, published 2023)
